Results on 1 molecule are retold here after patent US12344820B2, “Laundry detergent and fabric care compositions with sulfonamides for odor removal from fabrics” (Rem Brands, Inc., priority 2019, dated 2025).

A short description of this assay: Soaking of sweaty polyester workout shirts in BENZ solution, subjective scent rating by a group of people. Conditions: for Post Dry average scent rating: 30 min soak, after shirt dried; for Post Wet average scent rating: after 30 minutes of soaking; for Pre Soak average scent rating: shirt smelled before soaking (baseline). The source says:
Polyester workout shirts were worn without deodorant during a one-hour workout to induce copious amounts of sweat. The shirts were kept in sealed plastic bags for several days, mimicking normal wash schedule delay. The shirts were then soaked in buckets containing various amounts of N-chloro-4-carboxybenzenesulfonamide (BENZ). The bucket contained either zero (control), 0.02 wt %, 0.04 wt %, or 0.15 wt % of the BENZ (e.g. 0.02 grams BENZ per 100 grams of water, w/w). No agitation, spinning, or moving of any kind occurred during the soaking. After 30 minutes of soaking, the shirts were wrung out and laid to dry.
The shirts were smelled before soaking (Pre Soak), after the 30 minutes of soaking (Post Wet), and after they were dried (Post Dry) by a group of people who subjectively rated the scent of the shirt on a scale of 0 (no smell) to 10 (extremely smelly).

The mark [1] stands for this setting: 0.02 wt % BENZ in water, scale 0 to 10.
Setting [2] is: 0.04 wt % BENZ in water, scale 0 to 10.
Where [3] appears, read: 0.15 wt % BENZ in water, scale 0 to 10.

`O=C(O)c1ccc(S(=O)(=O)NCl)cc1` [BENZ, N-chloro-4-carboxybenzenesulfonamide]: the “Post Dry average scent rating” value by setting is: under setting [1], 5; under setting [2], 4; under setting [3], 0. For the same molecule, the “Post Wet average scent rating” value is, setting by setting: under setting [1], 5; under setting [2], 5; under setting [3], 1. Besides, the “Water average scent rating” value is, setting by setting: under setting [1], 7; under setting [2], 5; under setting [3], 2. Also, the “Pre Soak average scent rating” value (0.02 wt % BENZ in water, scale 0 (no smell) to 10 (extremely smelly)) was 10; the “Pre Soak average scent rating” value under setting [2] came to 10; the “Pre Soak average scent rating” value under setting [3] was 10. The “effect on malodor” value was “reduced the intensity of the malodor significantly” (0.02 wt % concentration); “reduced the intensity of the malodor significantly” (0.04 wt % concentration); “eradicated the malodor completely” (0.15 wt % concentration, once the shirt was dry).
